This is an account of results in patent publication US8486898B2, “Compounds and method for inhibiting the activity of gelatinase and collagenase” (Taipei Medical University (TMU), priority 2010, dated 2013).

One data set deals with Collagenase type IV. Kind of data set: Assay of Collagenase (DQ-gelatin fluorescence). It counts as biochemical. The note with it: DQ-gelatin substrate. An excerpt: Collagenase type IV and DQ-gelatin was applied in this experiment, where DQ^198 (EnzChek Gelatinase/Collagenase Assay Kit, E-12055) is a kind of fluorescent material, which can bonded with gelatin to form DQ-gelatin. […] Thus, the principle of this experiment is that the activity of collagenase is examined by measuring emission intensity of DQ fluorescent as that the chemical bonding between DQ-gelatin can be enzymatically digested by collagenase.
The fluorescence intensity can be measured in a florescence micro-plate reader equipped with standard fluoresce in filters. Digested product from the DQ-gelatin and DQ collagen substrate has absorption wavelength at 495 nm and fluorescence emission wavelength at 515 nm. Therefore, the activity of collagenase can be determined when the fluorescence emission intensity at 515 nm larger than the blank. In other word, the resulting fluorescence emission intensity would decrease at 515 nm if the collagenase inhibitors were applied. The results of collagenase assay are provided on Table 7, and all values are present as Mean±S.E.M.

The next data set has as its system MMP-2. In words: Gelatin zymography of HT-1080 supernatants, MMP-2. The note with it: HT-1080 supernatant; for Inhibitory effectiveness (%) MMP-2: 24 h; for IC50: gelatin zymography. It counts as cell-based, human. An excerpt: (§1) HT-1080 cell line (ATCC:CCL-121) is a human skin fibroblasts tumor, which is a kind of adherent cell lines, secreting gelatinase, MMP-2 and MMP-9, to extracellular space.
(§2) Before carrying out any experimental process of HT-1080 cell lines, in order to enable HT-1080 cells to secrete more MMP-2 and MMP-9 to extracellular space, the medium RPMI-1640 containing 0.5% FBS (without phenol red) was applied when conducting the subcultivation process. After centrifugation, the medium RPMI-1640 containing only 0.5% FBS was added into centrifugal vials to resuspend the cells, and 20 μL of cell suspension solution was transferred into eppendorfs to mixed with 20 μL Trypan blue for cell dyeing. Finally, calculation of the cell concentration was accomplished by using hemocytometer through optical microscope.
(§3) Suitable amount of the medium RPMI-1640 (based on the cell concentration obtained previous) containing only 0.5% FBS (without phenol red) was applied into the remaining the cell suspension solution, as the resulting concentration of the cell suspension solution around 5×10^5 cells/mL. Afterwards, 500 μL of cell suspension solutions was transferred onto 24-well cell culture plates, followed by 24 hours incubation at 37° C. for the further experiments.
(§4) To evaluation the inhibitory effectiveness of gelatinase of 4GX and 4G, a gelatin zymography is needed to be conducted.
(§5) The cell suspension solution (with concentration about 5×10^5 cells/mL) of the previous cell pre-treatment process was placed to a 24-well cell culture plates for 24 hours of incubation at 37° C. Subsequently, 1 μL of the solutions, containing 4GX and 4G, in different concentrations from 10 to 100 μM (10, 20, 50, 100 μM) were applied into each well respectively as vehicle controls, 1 μL of catechin in concentration of 100 μM was applied into the well as a positive control, whereas the well applied without any compounds is as blank, followed by 24 hours of incubation at 37° C. Afterwards, the plate was placed into ice to terminate the reaction, the supernatant of each well were taken out separately for the further experiments.
(§6) Supernatants and two volume of a sample loading dye (500 mM Tris-HCL, 25% Glycerol, 10% SDS, 0.32% Bromophenol blue, pH 6.8) and one volume of a dye were mixed together to use as the indicator of running end point. Afterwards, the enzyme activity was analyzed by polyacrylamide gel electrophoresis (PAGE).
(§7) 1% of gelatin and 10% of polyacrylamide were contained in the gel of PAGE, where gelatin acts as the substrate for gelatinase (pro MMP-2, MMP-2 and pro MMP-9). The running buffer was 25 mM Tris-base, 192 mM […] and 0.1% sodium dodecyl sulfate (SDS), pH 8.3, and the power supply was 125 V/80 mA.
(§8) Following the electrophoresis, the gel was washed with 2.5% Triton X-100 at 24° C. twice in 30 minutes to remove the dye and SDS from the gel. Afterwards, the gel was incubated with a reacting buffer (50 mM Tris-base, 200 mM NaCl, 5 mM CaCl2 and 0.02% Brij 35, pH 7.5) at 37° C. for 24 hours in a thermostatic cabinet, enabling gelatinase enzymatically react with gelatin. The fixing solution (7% acetic acid and 40% methanol) was subsequently applied to the gel for 30 minutes, in order to secure the proteins onto the gel. After 30 minutes, the gel was stained with Brilliant Blue G-Colloidial, and then destained with the destain solution (10% acetic acid and 40% methanol) for visualization of the gelatinase reactive positions against the background of the gel.
(§9) Finally, the gel was then analyzed by image analysis system (Vilber Lounmat, France), and the analysis software was Bio-1 Dversion 99. Setting the blank as reference, setting as 1, and the other groups are presented in relative values in contrast to blank.
(§10) The formula for calculating the inhibitory effectiveness is presented below. The results of gelatin zymography are provided on Table 6, and all values are presented as Mean±S.E.M. (the values of blank−vehicle controls)×100%

A further data set concerns HT-1080 cell lines. In words: MTT cell viability assay. The data set is classed as cell-based, human. The note with it: HT-1080, 22 h + 2 h MTT, blank = 100, mean ± S.E.M.
Text: as §1, §2, §3
To test the cytotoxicity of 4GX and 4G to HT-1080 cell lines, the cell viability assay need to be conducted. MTT cell viability assay was chosen for this experiment.
The principle of a cell viability assay is the conversion of a yellow tetrazolium salt (MTT; 3-(4,5-Dimethylthiazol-2-yl)-2,5-diphenyl tetrazolium bromide) into a purple product formazan via […] in intact mitochondria, where formazan can be dissolved in dimethylsulfoxide (DMSO). Thus, the increasing yield of resulting product formazan stands for increasing the percentage of cell vitality.
The cell suspension solution (with concentration about 5×10^5 cells/mL) of the previous cell pre-treatment process was placed to a 24-well cell culture plates with 24 hours of incubation under 5% of CO2/air at 37° C. in 70% of humidity, in order to allow cells to grow adherent on the well. After 24 hours of incubation, 1 μL of the solutions containing chemical compounds, 4GX and 4G, prepared in different concentrations (5-100 μM) were applied into each well respectively as vehicle controls, whereas the well applied without any chemical compounds as blank. Finally, the 24-well cell culture plate was placed in incubator for 22 hours of incubation.
Subsequently, the following steps need to avoid the light. After 22 hours of incubation, 50 μL of 5.5 mg/mL MTT was applied in each well for 2 hours of incubation at 37° C. Afterwards, the supernatant was removed from 24-well cell culture plates, and 400 μL DMSO was applied to dissolve the purple product formazan for 15 minutes by shaker at 50 rpm. 150-200 μL of the solution were taken out from each well to examine the adsorption value by ELISA at wavelength 550 nm.
The formula for calculation of cell vitality is presented following: (Adsorption value of vehicle control/blank)×100%
In general terms: Formazan colour is commonly taken as a measure of viable cells.

The subject of another data set is pro MMP-2. Kind of data set: Gelatin zymography of HT-1080 supernatants, pro MMP-2. The data set is classed as cell-based, human. The note with it: HT-1080 supernatant; for Inhibitory effectiveness (%) Pro MMP-2: 24 h; for IC50: gelatin zymography.
Text: as §1, §2, §3, §4, §5, §6, §7, §8, §9, §10

A short description of data set [1]: Transdermal penetration test, Franz-type diffusion cell. The data set is classed as in vitro ADME, mice. The note with it: for Average (μg) amount of 4G in the skins: average of three. An excerpt: Franz-type diffusion cell is the apparatus for this experiment, where its structure as a set of vertical double-diffusion and detachable glass containers. The upper donor chamber is a hollow cylindrical for the sample injection, and the bottom of the upper donor chamber has a contacting surface. The lower receptor chamber is double-layered hollow cylindrical diffusion container, where the inner layer of the receptor chamber made of glass contains a fluid for sampling, the outer layer of the receptor chamber is filled with circulating water kept at 37±1° C. for the human body simulation. The contact area between the donor chamber and the receptor chamber is 0.785 cm^2 (the actual penetration area), and the intermediate is fixed with nude and white mice (all three) skins (epidermis facing upwards) by metal clips as the in vitro transdermal penetration barriers.
The experimental method is presented below. First, 4G was dissolved in 30 wt % propylene glycol aqueous solution, followed transferring 0.5 mL of the aqueous solution (containing 0.25 mg) of 4G into the donor chamber of the Franz-type diffusion cell, and top of the open-ended donor chamber was covered with Parafilm® tightly, and the inner receptor chamber was filled with 5.5 mL of the buffer solution (30 wt % ethanol, phosphate buffer solution, pH 7.4), with continuously stirring at 600 rpm. 0.3 mL of the buffer solution was respectively sampled at time points of 1, 2, 4, 6, 8, 10, 12, 24, 36, and 48 hours, and with complete replacement of 0.3 mL of the buffer solution to keep fluid in the diffusion cell the same volume. Finally, the final compound of 4G accumulated in the fluid of the receptor chamber, was analyzed by liquid chromatography tandem mass spectrometry (LC-MS) to investigate the amount of the 4G penetrating through skins and reaching to the blood vessel,
After completing the previous experimental step, the compound, 4G, on the surface of nude and white mice skin were washed with deionized water. Afterwards, the skins were trimmed into the circles with diameter equal to the donor chamber, and following record the skin weight. The skins then placed in homogenizer with 1 mL alcohol at speed 300 rpm for 5 minutes, and followed with centrifugation process at 10000 rpm for 5 minutes. The supernatant was filtered by 0.45 μm PVDF and quantified the content of 4G by LC-MS.

The subject of a further data set is pro MMP-9. Kind of data set: Gelatin zymography of HT-1080 supernatants, pro MMP-9. The note with it: HT-1080 supernatant; for Inhibitory effectiveness (%) pro MMP-9: 24 h; for IC50: gelatin zymography. The data set is classed as cell-based, human.
Text: as §1, §2, §3, §4, §5, §6, §7, §8, §9, §10

As a reminder, the IC50 is the midpoint of a concentration-inhibition curve.

Where “and” joins values, the source holds several entries; their conditions need not be identical. Identical values can stand only once.

Consider `c1cnc2c(c1)ccc1cccnc12` [1, 10-phenanthroline, reference compound], for which the “Inhibitory effectiveness % (collagenase)” value stood at 12.80% in the data set with Collagenase type IV (20 μM) and 38.41% in the data set on Collagenase type IV (40 μM).

Regarding `O=C(OC[C@H]1O[C@@H](OC(=O)c2cc(O)c(O)c(O)c2)[C@H](OC(=O)c2cc(O)c(O)c(O)c2)[C@@H](OC(=O)c2cc(O)c(O)c(O)c2)[C@@H]1O)c1cc(O)c(O)c(O)c1` [4G, 1,2,3,6-tetra-O-galloyl-β-D-glucose], the “Inhibitory effectiveness % (collagenase)” value with Collagenase type IV (20 μM) was 50% and 52.12%; in the data set on Collagenase type IV (40 μM), 61.73%. The “Inhibitory effectiveness (%) MMP-2” value with MMP-2 (10 μM) is on record as 29.93%; with MMP-2 (20 μM) it was 48.07%; in the data set with MMP-2 (50 μM), 73.27%. Moreover, the IC50 is 23 µM in the data set on MMP-2, 99.6 µM in the data set with pro MMP-2 and > 100 µM in the data set on pro MMP-9. For the same compound, the “Vitality (%)” value came out at 93.45 ± 4.91% in the data set with HT-1080 cell lines (10 μM), 87.30 ± 1.93% in the data set on HT-1080 cell lines (20 μM), 93.06 ± 4.41% in the data set on HT-1080 cell lines (50 μM) and 87.81 ± 7.83% in the data set on HT-1080 cell lines (100 μM). Also, the “Inhibitory effectiveness (%) Pro MMP-2” value in the data set with pro MMP-2 (10 μM) is reported as 10.13%; in the data set with pro MMP-2 (20 μM) it was 16.80%; with pro MMP-2 (50 μM), 30.13%; in the data set on pro MMP-2 (100 μM), 39.40%. In addition, in data set [1] (nude and white mice skins, sampled 1 to 48 hours, LC-MS), the “accumulated amounts of 4G of the fluid in the receptor chamber” value is “nearly zero”. Also, the results for the “Percentage of 4G in the mouse skins” value in data set [1] (nude mice skin) and in data set [1] (white mice skin) were 27.84% and 74.84%, respectively. Moreover, the figures for the “Average (μg) amount of 4G in the skins” value in data set [1] (nude mice skin) and in data set [1] (white mice skin) were 1.17 ± 0.21 µg and 6.07 ± 2.43 µg, respectively. For the same compound, in data set [1] (nude mice skin, single samples, 0.25 mg in donor chamber, after 48 hours), the “The amount of 4G in the skins” value is 1.42 µg and 1.02 µg and 1.09 µg. The “Inhibitory effectiveness (%) pro MMP-9” value in the data set with pro MMP-9 (10 μM) worked out at 18.73%; in the data set with pro MMP-9 (20 μM), 28.70%; with pro MMP-9 (50 μM) it was 44.13%; with pro MMP-9 (100 μM) it was 53.50%.

As for `O=C(OCC1OC(OC(=O)c2cc(O)c(O)c(O)c2)C(OC(=O)c2cc(O)c(O)c(O)c2)C(OC(=O)c2cc(O)c(O)c(O)c2)C1OC(=O)c1ccc(O)cc1)c1cc(O)c(O)c(O)c1` [4GX, 1,2,3,6-tetra-O-galloyl-4-O-(4-hydroxybenzoyl)-β-D-glucopyranoside], the “Inhibitory effectiveness (%) MMP-2” value was 25.46% in the data set with MMP-2 (10 μM), 63.57% in the data set on MMP-2 (20 μM) and 76.20% in the data set on MMP-2 (50 μM). Further, the values for the half-maximal inhibitory concentration (IC50) in the data set with MMP-2, in the data set on pro MMP-2 and with pro MMP-9 were 16.3 µM, 30 µM and > 100 µM, respectively. The “Vitality (%)” value in the data set on HT-1080 cell lines (10 μM) worked out at 97.18 ± 6.52%; in the data set on HT-1080 cell lines (20 μM) it was 100.78 ± 4.06%; in the data set with HT-1080 cell lines (50 μM) it was 105.48 ± 2.18%; in the data set on HT-1080 cell lines (100 μM), 94.31 ± 9.76%. Moreover, the “Inhibitory effectiveness (%) Pro MMP-2” value with pro MMP-2 (10 μM) is given as 15.83%; with pro MMP-2 (20 μM), 31.53%; in the data set on pro MMP-2 (50 μM), 62.30%. Moreover, the “Inhibitory effectiveness (%) pro MMP-9” value is reported as 3.80% in the data set on pro MMP-9 (10 μM), 15.83% in the data set on pro MMP-9 (20 μM), 32.17% with pro MMP-9 (50 μM) and 45.47% in the data set with pro MMP-9 (100 μM).

With catechin [reference compound], the “Inhibitory effectiveness (%) MMP-2” value in the data set on MMP-2 (100 μM) is 86.77% and 85.00%. The “Inhibitory effectiveness (%) Pro MMP-2” value with pro MMP-2 (100 μM) is 56.30% and 72.97%. The “Inhibitory effectiveness (%) pro MMP-9” value in the data set with pro MMP-9 (100 μM) is 64.30% and 76.07%.
